Experimental data from patent publication US11266715B2, “C3A receptor agonists for use against ischemic brain injury, stroke, traumatic brain injury, spinal cord injury and neurodegenerative disorders” (priority 2016, dated 2022).
Entries after “also recorded” stand apart in the source; their conditions may differ.

Key:
[1] = system: mice subjected to neonatal HI injury; assay: Open field after neonatal HI injury; format: in vivo, mouse; settings: P50, 3 days treatment
Experimental: In the short-term study (3 days of intranasal treatment), 3 groups of WT mice were used; animals subjected to neonatal HI injury and treated with either C3a (HI-C3a, n=18) or PBS (HI-PBS, n=18) and sham-operated animals treated with PBS (SHAM-PBS, n=19). These mice were tested in an open field and object recognition test (ORT) at P50-P54 and brains were collected at P55 (FIG. 8A).
Purified human C3a (Complement Technology Inc., Tyler, Tex., USA) was diluted in sterile phosphate buffered saline (PBS) to a concentration of 200 nM, and a total of 8 μl i.e. […] (4 μl/nostril; corresponding to ca. 2.56 μg/kg body weight) of peptide solution or PBS was given intranasally to awake and hand-restrained mice held in a supine position. Solutions were administered through a pipette tip, drop-wise in 2 μl-portions divided by 1 min intervals to allow for absorption. […] C3a or PBS was given every 24 hours for three (short-term study) or seven (long-term study) days starting 1 h after HI induction, i.e. between P9 and P11 or P9 and P15, respectively. Mice in each litter were randomly assigned to C3a or PBS treatment. Sham animals received PBS. […]
The activity of each animal on the first day of habituation to the object recognition test apparatus was recorded as an open field task to study locomotor and exploratory activities (Leke et al., 2012). […]

[2] = system: mice subjected to neonatal hypoxia-ischemia; settings: single i.c.v. injection 1 h after HI, wild-type mice tested as adults (42 days later); not in C3aR−/− mice; cited from earlier work
VGLUT1+ puncta = assay: VGLUT1 immunostaining of cortex 21 days after stroke; format: in vivo, mouse; settings: ipsilesional cortex, in particular deep cortical layers
Experimental: (§1) For immunofluorescent evaluation, sections were deparaffinized, heated three times for 5 min in a microwave oven in 0.01 M citric buffer (pH 6.0), and blocked in PBS containing 0.05% Tween-20 (Sigma) and 1% in Bovine serum albumin (BSA, Sigma) for GAP-43 and synapsin I staining, 3% normal goat serum for VGLUT1 staining or 4% normal donkey serum for GAP-43 double stainings. Goat anti-synapsin la/b antibody (1:150; Santa Cruz, sc-7379) was followed by biotin-conjugated donkey anti-goat immunoglobulin (Ig) secondary antibody (1:200; Jackson Research Lab, 705-065-147) and Cy3-conjugated streptavidin (1:100; Sigma). Guinea pig anti-VGLUT1 (1:500; Millipore, AB5905) was followed by Alexa Fluor 488 goat anti-guinea pig Ig (1:500; Molecular Probes, A11073). […]
(§2) Highest signal intensity single plane images of immunostained sections were obtained by laser scanning confocal microscope (LSM TCS SP2, Leica Microsystems, ×63/NA 1.3 objective for synapsin I and GAP-43; and LSM 700, Carl Zeiss for VGLUT1 ×40/NA 1.3) at 1024×1024 pixels resolution. […] Three standard sections per animal in 160 μm intervals were analysed. […]
(§3) Single-stained images were analysed using MetaMorph® software (Molecular Devices, ver. 2.8.5) to obtain number, average size and intensity of positive punctuate structures per image. […] An experimenter blinded to experimental group performed all image acquisitions and quantifications.

synapsin I+ puncta = assay: Synapsin I immunostaining of cortex 21 days after stroke; format: in vivo, mouse; settings: for larger size of synapsin I+ puncta vs PBS-treated mice: ipsilesional motor cortex
Experimental: as §1, with “A11073). For single staining, mouse anti-GAP-43 antibody (1:1000; Millipore, MAB347), was followed by biotinylated rabbit anti-mouse Ig secondary antibody (1:200; Dako, E0354) and Cy3-conjugated streptavidin (1:100; Sigma).” for “A11073).”
as §2, §3

C3a: Purified human C3a peptide (Complement Technologies), C3a receptor agonist, amino acid sequence SEQ ID NO: 1
anxiety-like behavior (centre distance and time, rearing, grooming) [1]: anxiety-like behavior was not induced
general exploratory and locomotor activities (speed, activity, locomotion time, distance) [1]: did not affect general exploratory and locomotor activities
HI-induced cognitive/memory impairment after single intraventricular C3a [2]: prevented HI-induced cognitive impairment; also recorded: ameliorated memory impairment
density and size of VGLUT1+ puncta (VGLUT1+ puncta): higher density and size
increase in density of synapsin I+ puncta (synapsin I+ puncta; contralesional somatosensory cortex, P=0.030): 20%
larger size of synapsin I+ puncta vs PBS-treated mice (synapsin I+ puncta; deep layers, P<0.0001): 8.1%
larger size of synapsin I+ puncta vs PBS-treated mice (synapsin I+ puncta; superficial layers, P=0.0004): 9.7%
